According to patent US20240148821A1, “PHARMACEUTICAL USE OF CYCLIC PEPTIDE COMPOUND” (CHUGAI SEIYAKU KABUSHIKI KAISHA, priority 2021, published 2024):
Numbered stars: 1 amine (or outer) side, 2 acyl side, 3 side chain; on linkers, the order of the positions; unused ones are H or OH. Bridge positions count the residues as written; N and C are the ends. Square brackets hold non-standard residues; d marks the D form. Peptide text beside a SMILES is read from it. * marks the point of attachment. hPhe(3-Cl-4-CF3) = N[C@@H](CCc1ccc(C(F)(F)F)c(Cl)c1)C(=O)O; hPhe(3-F,4-CF3) = N[C@@H](CCc1ccc(C(F)(F)F)c(F)c1)C(=O)O; hPhe(4-CF3) = N[C@@H](CCc1ccc(C(F)(F)F)cc1)C(=O)O; NMePhe(4-Cl) = CN[C@@H](Cc1ccc(Cl)cc1)C(=O)O; NMePhe(4-Me) = CN[C@@H](Cc1ccc(C)cc1)C(=O)O; NMedβ3hAla = C[C@H](CC(=O)[*:2])N(C)[*:1]; hPhe(4-F) = N[C@@H](CCc1ccc(F)cc1)C(=O)O; NMeGly(cPent) = CN[C@H](C(=O)O)C1CCCC1; NMeCha = CN[C@@H](CC1CCCCC1)C(=O)O; NMeI = CC[C@H](C)[C@H](NC)C(=O)O; NMeβAla = CN(CCC(=O)[*:2])[*:1]; NMeD = CN[C@@H](CC(=O)O)C(=O)O; NMeL = CN[C@@H](CC(C)C)C(=O)O; NMeV = CN[C@H](C(=O)O)C(C)C; d(β3hA) = C[C@@H](N)CC(=O)O; NMeS = CN[C@@H](CO)C(=O)O; Morpholide = C1CN(*)CCO1; NMeA = CN[C@@H](C)C(=O)O; NMeAib = CNC(C)(C)C(=O)O; Piperidide = C1CCN(*)CC1; Ac5c = NC1(C(=O)O)CCCC1; Aze = O=C(O)[C@@H]1CCN1; Aib = CC(C)(N)C(=O)O; Sar = CNCC(=O)O; Propyl = CCC*

biological target: protein-protein interaction between Kras and SOS1 (biotin-tagged human Kras loaded with GDP, His-tagged human SOS1) (Homo sapiens (Human), UniProt P01116, G12D); assay: Protein-protein interaction inhibition between Kras and SOS1 (KrasG12D-SOS PPI) using AlphaScreen; type: biochemical; conditions: AlphaScreen; biotin-tagged human Kras loaded with GDP, His-tagged human SOS1; read-out: KRAS G12D-SOS PPI IC50;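 also: kras produced in E. coli, Ni-coupled donor beads and streptavidin acceptor beads, excitation 680 nm with emission detected at 520–620 nm via singlet oxygen transfer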

Point of comparison: CC[C@H](C)[C@@H]1NC(=O)[C@H](CC(C)C)N(C)C(=O)C[C@@H](C)NC(=O)[C@H](CC(C)C)N(C)C(=O)C2(CCCC2)NC(=O)[C@H](CC(C)C)N(C)C(=O)[C@H](CCc2ccc(C(F)(F)F)cc2)NC(=O)CN(C)C(=O)[C@H](Cc2ccc(Cl)cc2)N(C)C(=O)CN(C)C(=O)CN(C)C1=O [Compound 843] (cyclo([Ac5c][NMeL][d(β3hA)][NMeL]I[Sar][Sar][NMePhe(4-Cl)][Sar][hPhe(4-CF3)][NMeL])), IC50 49 nM. Against it:
- CC[C@H](C)[C@@H]1NC(=O)[C@H](CC(C)C)N(C)C(=O)C[C@@H](C(=O)N2CCCCC2)N(C)C(=O)[C@H]([C@@H](C)CC)N(C)C(=O)C2(CCCC2)NC(=O)[C@@H]2CCCN2C(=O)[C@H](CCc2ccc(C(F)(F)F)c(Cl)c2)NC(=O)CN(C)C(=O)[C@H](C2CCCC2)N(C)C(=O)[C@@H]2CCN2C(=O)[C@H](C)N(C)C1=O [Compound 807] ([NMeL]I[NMeA][Aze][NMeGly(cPent)][Sar][hPhe(3-Cl-4-CF3)]P[Ac5c][NMeI][NMeD]-Piperidide; lactam N-11) — 66-fold lower, 0.74 nM
- CCCOC[C@H]1C(=O)N(C)CC(=O)N[C@@H](CCc2ccc(C(F)(F)F)c(F)c2)C(=O)N2CCC[C@H]2C(=O)NC2(CCCC2)C(=O)N(C)[C@@H]([C@@H](C)CC)C(=O)N(C)[C@H](C(=O)N2CCOCC2)CC(=O)N(C)[C@@H](CC(C)C)C(=O)N[C@@H]([C@@H](C)CC)C(=O)N(C)[C@@H](C)C(=O)N2CC[C@H]2C(=O)N1C [Compound 827] ([NMeL]I[NMeA][Aze][NMeS](Propyl)[Sar][hPhe(3-F,4-CF3)]P[Ac5c][NMeI][NMeD]-Morpholide; lactam N-11) — 18-fold lower, 2.8 nM
- CC[C@H](C)[C@@H]1NC(=O)[C@H](CC(C)C)N(C)C(=O)C[C@@H](C(=O)N(C)C)N(C)C(=O)[C@H]([C@@H](C)CC)N(C)C(=O)CNC(=O)[C@@H]2CCCN2C(=O)[C@H](CCc2ccc(C(F)(F)F)c(Cl)c2)NC(=O)CN(C)C(=O)[C@H](Cc2ccc(C)cc2)N(C)C(=O)[C@@H]2CCN2C(=O)[C@H](C)N(C)C1=O [Compound 828] ([NMeL]I[NMeA][Aze][NMePhe(4-Me)][Sar][hPhe(3-Cl-4-CF3)]PG[NMeI][NMeD]-NMe2; lactam N-11) — within 1.5-fold, 40 nM
- CC[C@H](C)[C@@H]1NC(=O)[C@H](CC(C)C)N(C)C(=O)CCN(C)C(=O)[C@H](CC(C)C)NC(=O)C(C)(C)N(C)C(=O)[C@H](CC(C)C)NC(=O)[C@H](CCc2ccc(C(F)(F)F)c(F)c2)NC(=O)CN(C)C(=O)[C@H](CC2CCCCC2)N(C)C(=O)CN(C)C(=O)CN(C)C1=O [Compound 832] (cyclo(I[Sar][Sar][NMeCha][Sar][hPhe(3-F,4-CF3)]L[NMeAib]L[NMeβAla][NMeL])) — 2.4-fold higher, 120 nM
- CC[C@H](C)[C@@H]1NC(=O)[C@H](CC(C)C)N(C)C(=O)C[C@@H](C)NC(=O)[C@H](CC(C)C)N(C)C(=O)C(C)(C)NC(=O)[C@H](CC(C)C)N(C)C(=O)[C@H](CCc2ccc(C(F)(F)F)cc2)NC(=O)CN(C)C(=O)[C@H](CC2CCCCC2)N(C)C(=O)CN(C)C(=O)CN(C)C1=O [Compound 839] (cyclo([Aib][NMeL][d(β3hA)][NMeL]I[Sar][Sar][NMeCha][Sar][hPhe(4-CF3)][NMeL])) — 4.5-fold higher, 220 nM
- CCCOC[C@H]1C(=O)N2CC[C@H]2C(=O)N(C)[C@@H](CC2CCCCC2)C(=O)N(C)CC(=O)N[C@@H](CCc2ccc(C(F)(F)F)c(Cl)c2)C(=O)N2CCC[C@H]2C(=O)NC2(CCCC2)C(=O)N(C)[C@@H](C(C)C)C(=O)N[C@H](C)CC(=O)N(C)[C@@H](CC(C)C)C(=O)N[C@@H]([C@@H](C)CC)C(=O)N1C [Compound 852] (cyclo([Ac5c][NMeV][d(β3hA)][NMeL]I[NMeS](Propyl)[Aze][NMeCha][Sar][hPhe(3-Cl-4-CF3)]P)) — 3.9-fold higher, 190 nM
- CC[C@H](C)[C@@H]1NC(=O)[C@H](CC(C)C)N(C)C(=O)C[C@@H](C)N(C)C(=O)[C@H]([C@@H](C)CC)N(C)C(=O)C2(CCCC2)NC(=O)[C@@H]2CCCN2C(=O)[C@H](CCc2ccc(C(F)(F)F)c(F)c2)NC(=O)CN(C)C(=O)[C@H](CC2CCCCC2)N(C)C(=O)[C@@H]2CCN2C(=O)[C@H](C)N(C)C1=O [Compound 859] (cyclo([Ac5c][NMeI][NMedβ3hAla][NMeL]I[NMeA][Aze][NMeCha][Sar][hPhe(3-F,4-CF3)]P)) — within 1.5-fold, 64 nM
- CC[C@H](C)[C@@H]1NC(=O)[C@H](C)N(C)C(=O)C[C@@H](C(=O)N2CCCCC2)N(C)C(=O)[C@H](C(C)C)N(C)C(=O)C2(CCCC2)NC(=O)[C@@H]2CCCN2C(=O)[C@H](CCc2ccc(F)cc2)NC(=O)CN(C)C(=O)[C@H](CC2CCCCC2)N(C)C(=O)[C@@H]2CCN2C(=O)[C@H](C)N(C)C1=O [Compound 860] ([NMeA]I[NMeA][Aze][NMeCha][Sar][hPhe(4-F)]P[Ac5c][NMeV][NMeD]-Piperidide; lactam N-11) — 4.3-fold higher, 210 nM
